From ChEMBL document CHEMBL1201862, “PubChem BioAssay data set” (2004)
Active and inactive are the calls of the source.

How the values were obtained:
Leucine aminopeptidase = molecular target: T1, Leucine aminopeptidase (Plasmodium falciparum 3D7, UniProt Q8IL11); test: P. falciparum M17LAP inhibitors, primary screen, biochemical, fluorogenic H-Leu-NHMec substrate, 1536-well (AID 1619); type: functional
T1 sequence (Q8IL11 whole entry): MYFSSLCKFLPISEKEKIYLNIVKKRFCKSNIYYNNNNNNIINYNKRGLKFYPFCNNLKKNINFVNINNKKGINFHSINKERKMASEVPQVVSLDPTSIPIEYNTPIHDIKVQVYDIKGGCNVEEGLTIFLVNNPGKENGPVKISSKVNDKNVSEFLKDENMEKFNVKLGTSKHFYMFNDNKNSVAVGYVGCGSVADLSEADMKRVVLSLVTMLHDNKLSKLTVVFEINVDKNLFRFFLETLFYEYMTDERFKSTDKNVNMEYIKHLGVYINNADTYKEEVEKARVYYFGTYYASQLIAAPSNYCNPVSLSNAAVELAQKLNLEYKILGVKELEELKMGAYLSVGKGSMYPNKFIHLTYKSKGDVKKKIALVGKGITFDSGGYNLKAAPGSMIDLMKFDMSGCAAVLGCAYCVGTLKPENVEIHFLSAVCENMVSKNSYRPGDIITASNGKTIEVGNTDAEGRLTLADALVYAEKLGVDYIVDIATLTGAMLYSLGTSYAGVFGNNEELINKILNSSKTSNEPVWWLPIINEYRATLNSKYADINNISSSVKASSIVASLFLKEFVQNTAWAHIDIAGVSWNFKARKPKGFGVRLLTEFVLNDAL

Aspartyl aminopeptidase = molecular target: T2, Aspartyl aminopeptidase (Plasmodium falciparum 3D7, UniProt Q8I2J3); test: Counterscreen for inhibitors of M1 and M17 aminopeptidases: QFRET-based biochemical high throughput dose response assay for inhibitors of the Plasmodium falciparum M18 Aspartyl Aminopeptidase (PFM18AAP). [Related PubChem assays: 1619 (Screening assay (M17LAP inhibitors).), 1445 (Screening assay (M1AAP inhibitors).)]
T2 sequence (Q8I2J3 whole entry): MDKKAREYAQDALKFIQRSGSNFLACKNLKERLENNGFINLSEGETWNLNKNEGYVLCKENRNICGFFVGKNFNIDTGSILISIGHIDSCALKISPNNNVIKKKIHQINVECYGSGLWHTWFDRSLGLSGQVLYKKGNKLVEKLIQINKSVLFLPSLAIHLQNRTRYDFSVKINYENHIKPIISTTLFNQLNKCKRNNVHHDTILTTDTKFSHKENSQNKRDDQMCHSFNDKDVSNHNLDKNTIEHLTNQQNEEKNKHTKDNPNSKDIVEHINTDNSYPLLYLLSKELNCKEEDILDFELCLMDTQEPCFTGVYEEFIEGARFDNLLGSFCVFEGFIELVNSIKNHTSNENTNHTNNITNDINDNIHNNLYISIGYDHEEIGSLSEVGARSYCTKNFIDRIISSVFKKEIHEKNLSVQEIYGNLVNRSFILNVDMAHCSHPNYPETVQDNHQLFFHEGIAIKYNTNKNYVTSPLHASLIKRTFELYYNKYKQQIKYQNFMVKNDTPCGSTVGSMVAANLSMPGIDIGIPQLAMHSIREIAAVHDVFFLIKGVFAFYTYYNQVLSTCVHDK

Procathepsin L = Procathepsin L (Homo sapiens, UniProt P07711); test: cathepsin L inhibitors, dose response, counter-screen for M1/M17 aminopeptidase inhibitor project, biochemical, QFRET, 1536-well (AID 2214)
[1] = molecular target: G-protein coupled receptor 55 (Homo sapiens, UniProt Q9Y2T6); test: GPR55 agonists via beta-arrestin recruitment, primary screen, imaging, U2OS cells, beta-arrestin-GFP redistribution (AID 1961); type: functional
Coagulation factor XII = molecular target: T3, Coagulation factor XII (Homo sapiens, UniProt P00748); test: FXIIa inhibitor potency, concentration-response, biochemical (AID 716); type: functional
T3 sequence (P00748 whole entry): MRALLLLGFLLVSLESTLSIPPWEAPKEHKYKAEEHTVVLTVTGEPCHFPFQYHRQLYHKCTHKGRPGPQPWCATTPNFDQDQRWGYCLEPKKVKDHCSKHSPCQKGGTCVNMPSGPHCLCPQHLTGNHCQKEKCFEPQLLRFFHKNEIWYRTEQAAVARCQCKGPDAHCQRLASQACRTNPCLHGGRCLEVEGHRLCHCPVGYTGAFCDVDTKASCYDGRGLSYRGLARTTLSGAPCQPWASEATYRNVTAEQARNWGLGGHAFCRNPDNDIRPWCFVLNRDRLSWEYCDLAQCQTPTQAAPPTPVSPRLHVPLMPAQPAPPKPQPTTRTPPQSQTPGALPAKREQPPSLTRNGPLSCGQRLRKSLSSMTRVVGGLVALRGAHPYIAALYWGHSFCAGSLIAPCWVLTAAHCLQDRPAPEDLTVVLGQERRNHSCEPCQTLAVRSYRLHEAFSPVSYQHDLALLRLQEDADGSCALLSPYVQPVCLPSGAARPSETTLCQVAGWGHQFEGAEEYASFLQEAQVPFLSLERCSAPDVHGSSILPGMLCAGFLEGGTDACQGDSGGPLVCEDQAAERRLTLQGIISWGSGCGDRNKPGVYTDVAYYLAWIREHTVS

Hexokinase = Hexokinase (Trypanosoma brucei, UniProt Q38C41); test: Confirmation assay for inhibitors of Trypanosoma brucei hexokinase 1-Analogue-first series. [Related pubchem assays (depositor defined):AID1430, AID1632, AID2516, AID2560, AID2579, AID2600, AID449725, AID492951]; type: functional
[2] = molecular target: Glucose-6-phosphate 1-dehydrogenase (Homo sapiens, UniProt P11413); test: human G6PD enzyme inhibitors, dose response, selectivity assay for P. falciparum G6PD inhibitor project, biochemical, fluorescence (AID 504792); type: functional
[3] = molecular target: T4, Polyadenylate-binding protein 1 (Homo sapiens, UniProt P11940); test: PABP1 MLLE–PAM2 interaction inhibitors, dose response, miRNA deadenylation inhibitor project, biochemical, fluorescence polarization, Cy5-PAM2 peptide, secondary (AID 602260); type: functional; conditions: read-out: IC50_Mean
[4] = molecular target: T4, Polyadenylate-binding protein 1; test: PABP1 MLLE–PAM2 binding inhibitor potency, dose response, biochemical, fluorescence polarization, FITC-PAM2 peptide (AID 602259); type: functional; conditions: read-out: IC50_Mean

T4 sequence (P11940 whole entry): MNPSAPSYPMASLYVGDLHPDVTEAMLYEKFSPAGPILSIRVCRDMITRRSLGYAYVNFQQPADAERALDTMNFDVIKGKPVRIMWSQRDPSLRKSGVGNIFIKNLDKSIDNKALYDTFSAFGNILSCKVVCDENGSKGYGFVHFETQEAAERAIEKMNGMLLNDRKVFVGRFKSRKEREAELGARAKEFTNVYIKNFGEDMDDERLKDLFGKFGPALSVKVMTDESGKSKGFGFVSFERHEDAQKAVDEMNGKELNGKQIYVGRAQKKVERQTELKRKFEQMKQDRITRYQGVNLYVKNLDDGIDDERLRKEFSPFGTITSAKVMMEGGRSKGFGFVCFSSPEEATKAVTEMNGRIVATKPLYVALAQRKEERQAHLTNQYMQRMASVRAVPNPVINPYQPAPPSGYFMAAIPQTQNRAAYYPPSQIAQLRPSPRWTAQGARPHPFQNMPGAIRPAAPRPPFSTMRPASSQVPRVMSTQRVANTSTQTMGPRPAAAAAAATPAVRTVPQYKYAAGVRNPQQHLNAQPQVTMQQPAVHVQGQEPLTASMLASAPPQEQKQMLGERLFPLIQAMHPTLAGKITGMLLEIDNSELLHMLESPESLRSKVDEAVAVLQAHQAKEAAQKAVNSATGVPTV
Sequence of G-protein coupled receptor 55 (Q9Y2T6 whole entry): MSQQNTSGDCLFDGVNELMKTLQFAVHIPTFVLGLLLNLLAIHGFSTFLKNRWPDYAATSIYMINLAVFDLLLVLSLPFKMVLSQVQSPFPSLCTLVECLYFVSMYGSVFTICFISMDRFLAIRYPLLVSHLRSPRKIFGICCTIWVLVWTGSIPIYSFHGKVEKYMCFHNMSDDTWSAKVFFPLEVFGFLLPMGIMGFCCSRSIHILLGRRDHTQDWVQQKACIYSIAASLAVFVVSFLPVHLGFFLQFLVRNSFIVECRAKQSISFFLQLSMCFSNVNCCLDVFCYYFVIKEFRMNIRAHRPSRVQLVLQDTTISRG
Sequence of Hexokinase (Q38C41 whole entry): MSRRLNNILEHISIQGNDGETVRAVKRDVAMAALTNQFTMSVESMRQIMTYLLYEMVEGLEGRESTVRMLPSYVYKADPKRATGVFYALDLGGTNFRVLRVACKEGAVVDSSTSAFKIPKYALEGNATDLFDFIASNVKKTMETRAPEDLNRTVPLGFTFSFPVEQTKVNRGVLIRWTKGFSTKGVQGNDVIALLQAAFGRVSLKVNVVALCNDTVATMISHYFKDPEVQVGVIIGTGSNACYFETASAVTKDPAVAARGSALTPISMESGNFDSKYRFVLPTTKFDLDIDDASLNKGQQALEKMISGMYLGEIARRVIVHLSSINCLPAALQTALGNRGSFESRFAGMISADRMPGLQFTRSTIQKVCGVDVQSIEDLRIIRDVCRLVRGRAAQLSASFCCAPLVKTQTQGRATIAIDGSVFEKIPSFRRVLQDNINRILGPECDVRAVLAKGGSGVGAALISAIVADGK
Sequence of Procathepsin L (P07711 whole entry): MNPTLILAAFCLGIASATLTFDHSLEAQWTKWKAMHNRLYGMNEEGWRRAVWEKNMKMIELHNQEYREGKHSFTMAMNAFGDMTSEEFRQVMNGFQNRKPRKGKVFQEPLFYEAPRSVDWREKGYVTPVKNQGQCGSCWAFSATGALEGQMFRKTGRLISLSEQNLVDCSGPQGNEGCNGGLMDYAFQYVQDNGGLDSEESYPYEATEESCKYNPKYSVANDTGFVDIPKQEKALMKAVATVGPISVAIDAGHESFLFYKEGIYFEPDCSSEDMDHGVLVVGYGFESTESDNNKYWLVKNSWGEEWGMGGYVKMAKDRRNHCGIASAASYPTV
Sequence of Glucose-6-phosphate 1-dehydrogenase (P11413 whole entry): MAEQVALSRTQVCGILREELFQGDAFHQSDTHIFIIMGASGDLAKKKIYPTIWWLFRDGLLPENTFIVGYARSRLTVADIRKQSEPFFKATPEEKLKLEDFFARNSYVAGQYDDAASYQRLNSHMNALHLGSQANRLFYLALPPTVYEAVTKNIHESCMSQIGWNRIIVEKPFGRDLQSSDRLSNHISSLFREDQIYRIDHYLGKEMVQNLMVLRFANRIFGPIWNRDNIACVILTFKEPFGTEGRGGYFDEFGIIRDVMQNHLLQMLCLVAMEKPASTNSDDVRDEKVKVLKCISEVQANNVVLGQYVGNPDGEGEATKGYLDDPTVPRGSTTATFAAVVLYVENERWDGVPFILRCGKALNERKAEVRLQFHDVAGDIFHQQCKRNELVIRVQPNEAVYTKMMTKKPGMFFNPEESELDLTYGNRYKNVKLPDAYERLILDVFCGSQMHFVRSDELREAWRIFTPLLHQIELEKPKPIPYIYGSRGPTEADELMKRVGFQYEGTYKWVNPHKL

## O=C(CSc1nnc(Nc2ccccc2)s1)NN1C(=O)NC2(CCCCC2)C1=O
Leucine aminopeptidase
  IC50: < 1 µM (active)
Aspartyl aminopeptidase
  IC50: > 73.5 µM (not active)
Procathepsin L
  IC50: > 59.6 µM (not active)
[1]
  EC50: 30.3 µM (inactive)

## COc1ccc2c(c1)CCc1c(C(=O)NCc3cccnc3)noc1-2
Coagulation factor XII
  IC50: 3.76 µM (active)

## N#Cc1ccc2c(=O)n(-c3ccccc3)sc2c1
Hexokinase
  IC50: 6.66 µM (active)
[2]
  IC50: 7.11 µM (active)
[3]
  IC50: > 66 µM (inactive)
[4]
  IC50: > 66 µM (inactive)
